From ChEMBL document CHEMBL1201862, “PubChem BioAssay data set” (2004)
Active and inactive are the calls of the source.

What was measured:
Protein skinhead-1 = biological target: T1, Protein skinhead-1 (Caenorhabditis elegans, UniProt P34707); assay type: functional
T1 sequence (P34707 whole entry): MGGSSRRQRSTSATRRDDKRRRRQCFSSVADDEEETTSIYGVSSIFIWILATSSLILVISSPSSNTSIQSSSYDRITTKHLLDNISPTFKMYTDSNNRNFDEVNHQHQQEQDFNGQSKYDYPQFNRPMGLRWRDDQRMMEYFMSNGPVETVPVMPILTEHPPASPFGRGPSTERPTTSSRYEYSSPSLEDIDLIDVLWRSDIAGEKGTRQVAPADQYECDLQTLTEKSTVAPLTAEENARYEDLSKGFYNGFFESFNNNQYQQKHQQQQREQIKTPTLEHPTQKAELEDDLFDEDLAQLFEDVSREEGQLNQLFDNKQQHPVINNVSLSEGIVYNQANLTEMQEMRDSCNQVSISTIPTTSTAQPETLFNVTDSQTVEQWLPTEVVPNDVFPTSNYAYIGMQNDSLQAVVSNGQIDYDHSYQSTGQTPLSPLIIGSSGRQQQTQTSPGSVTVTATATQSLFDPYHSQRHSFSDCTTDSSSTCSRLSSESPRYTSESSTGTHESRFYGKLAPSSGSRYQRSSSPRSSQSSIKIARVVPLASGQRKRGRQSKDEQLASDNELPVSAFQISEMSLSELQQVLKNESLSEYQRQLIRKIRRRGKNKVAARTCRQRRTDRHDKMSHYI

[1] = biological target: FAD-linked sulfhydryl oxidase ALR (Homo sapiens, UniProt P55789); test: inhibitors of human ALR sulfhydryl oxidase, dose response, biochemical, H2O2 detection, luminescence, cherry-pick (AID 493248)
[2] = inhibitors of SNCA 5'UTR-driven reporter translation, confirmation, H4 neuroglioma cells, luminescence (AID 1988); assay type: functional, cell-based
[3] = Luminescence Cell-Based Dose Response HTS to Identify Inhibitors of 5'UTR Stem-Loop Driven Prion Protein mRNA Translation in H4 Neuroglioblastoma Cells. [Related pubchem assays: 1827 (Project Summary), 1813 (Primary HTS)]; assay type: functional
[4] = inhibitors of firefly luciferase expression or activity, dose response, H4 neuroglioma cells, luminescence (AID 1990); assay type: functional, cell-based
Streptokinase A = biological target: T2, Streptokinase A (Streptococcus pyogenes serotype M1, UniProt P10520); test: S. pyogenes streptokinase expression inhibitors, potency, dose response, plasminogen activation absorbance, OD405 (AID 1914); assay type: functional, Streptococcus pyogenes M1 GAS;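 also: secreted streptokinase activity via plasminogen activation per viability signal from cell pellet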
T2 sequence (P10520 whole entry): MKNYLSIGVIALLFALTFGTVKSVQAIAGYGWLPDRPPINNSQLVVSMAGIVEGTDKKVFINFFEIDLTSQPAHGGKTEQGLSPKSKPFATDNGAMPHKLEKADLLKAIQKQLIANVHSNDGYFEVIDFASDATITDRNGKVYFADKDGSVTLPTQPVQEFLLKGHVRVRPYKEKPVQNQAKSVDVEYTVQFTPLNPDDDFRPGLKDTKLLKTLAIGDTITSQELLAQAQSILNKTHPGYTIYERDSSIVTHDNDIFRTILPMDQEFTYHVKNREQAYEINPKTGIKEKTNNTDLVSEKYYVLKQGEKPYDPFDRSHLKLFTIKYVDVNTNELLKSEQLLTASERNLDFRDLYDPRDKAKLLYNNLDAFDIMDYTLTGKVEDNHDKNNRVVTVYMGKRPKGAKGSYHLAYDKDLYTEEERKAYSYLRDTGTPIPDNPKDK

[5] = system: Streptococcus sp. 'group A'; test: growth inhibition of control SK(-) GAS strain, dose response, counter-screen for streptokinase expression inhibitor project, luminescence, kanamycin, BacTiterGlo, confirmation (AID 1900); assay type: functional, organism-based
[6] = Luminescence Cell-Based Dose Retest to Confirm Inhibitors of Cancer Stem Cells. [Related pubchem assays (depositor defined):AID2717, AID2721]; assay type: functional; conditions: Homo sapiens
Streptococcus = test: Group A Streptococcus viability loss, dose response, counter-screen for streptokinase expression inhibitor project, luminescence, BacTiterGlo (AID 1915); assay type: functional, organism-based;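 also: potency for reduction of bacterial viability or growth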
[7] = inhibitors of intracellular T. cruzi replication, confirmation, NIH3T3 host cells, beta-gal luminescence (AID 2044); assay type: functional, cell-based;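 also: intracellular parasites grown in NIH/3T3 mouse fibroblasts as host cells; luminescent beta-galactosidase reporter signal from transgenic T. cruzi replicating inside host cells; inhibitors lower the luminescence signal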
[8] = cytotoxicity toward NIH3T3 fibroblasts, dose response, counter-screen, cell-based, ATP luminescence, mouse fibroblasts (AID 2010); assay type: functional;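 also: cells exposed to compound for about 90 hours before reading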
[9] = microbe, parasite or virus in culture; assay type: functional; conditions: Mycobacterium tuberculosis
Cytochrome P450 2C19 = Cytochrome P450 2C19 (Homo sapiens, UniProt P33261); test: Cytochrome panel assay with activity outcomes. Panel member name: p450-cyp2c19 Compounds with AC50 equal or less than 10 uM are considered active; assay type: functional; conditions: read-out: AC50
[10] = HepG2 cell cytotoxicity, dose response, cytotoxicity control for Shn3 inhibitor project, CellTiter-Glo, cherry-picked (AID 624134); assay type: functional, cell-based
[11] = HEp-2 cell cytotoxicity, dose response, cytotoxicity control for RSV inhibitor project, HTS (AID 2410); assay type: functional; conditions: human respiratory syncytial virus
[12] = biological target: T3, Rac GTPase-activating protein 1 (Homo sapiens, UniProt Q9H0H5); test: MgcRacGAP GTPase-activating activity inhibitors, confirmation, biochemical, ADP Hunter fluorescence, primary and confirmatory (AID 624330); assay type: functional
T3 sequence (Q9H0H5 whole entry): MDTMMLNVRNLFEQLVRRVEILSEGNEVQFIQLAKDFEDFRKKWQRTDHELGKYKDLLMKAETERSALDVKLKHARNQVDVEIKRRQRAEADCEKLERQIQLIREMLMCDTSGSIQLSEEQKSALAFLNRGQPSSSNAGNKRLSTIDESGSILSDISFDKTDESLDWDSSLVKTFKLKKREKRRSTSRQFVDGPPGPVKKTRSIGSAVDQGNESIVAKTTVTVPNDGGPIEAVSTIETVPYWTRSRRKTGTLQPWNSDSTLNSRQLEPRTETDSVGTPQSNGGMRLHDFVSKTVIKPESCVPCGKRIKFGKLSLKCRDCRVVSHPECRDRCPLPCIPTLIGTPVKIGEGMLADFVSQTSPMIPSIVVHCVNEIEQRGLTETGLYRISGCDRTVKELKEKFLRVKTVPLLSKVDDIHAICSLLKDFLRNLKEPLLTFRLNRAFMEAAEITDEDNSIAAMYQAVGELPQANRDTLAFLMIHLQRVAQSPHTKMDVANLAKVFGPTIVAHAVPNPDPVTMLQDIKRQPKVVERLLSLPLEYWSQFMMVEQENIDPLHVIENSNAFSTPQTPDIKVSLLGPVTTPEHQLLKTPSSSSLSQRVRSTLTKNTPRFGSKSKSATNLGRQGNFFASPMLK

[13] = Shn3 3'UTR reporter inhibitors, dose response, cell-based, Clone20 osteoblasts, firefly luciferase, cherry-picked (AID 624132); assay type: functional;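 also: firefly luciferase luminescence from reporter carrying the Shn3 3'UTR in osteoblasts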

Chain of FAD-linked sulfhydryl oxidase ALR (P55789 whole entry): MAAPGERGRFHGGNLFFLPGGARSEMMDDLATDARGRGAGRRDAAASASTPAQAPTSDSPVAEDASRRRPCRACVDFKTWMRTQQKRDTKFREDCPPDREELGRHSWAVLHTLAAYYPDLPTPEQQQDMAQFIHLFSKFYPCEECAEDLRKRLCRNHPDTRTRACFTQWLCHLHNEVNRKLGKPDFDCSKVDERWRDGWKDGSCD
Chain of Cytochrome P450 2C19 (P33261 whole entry): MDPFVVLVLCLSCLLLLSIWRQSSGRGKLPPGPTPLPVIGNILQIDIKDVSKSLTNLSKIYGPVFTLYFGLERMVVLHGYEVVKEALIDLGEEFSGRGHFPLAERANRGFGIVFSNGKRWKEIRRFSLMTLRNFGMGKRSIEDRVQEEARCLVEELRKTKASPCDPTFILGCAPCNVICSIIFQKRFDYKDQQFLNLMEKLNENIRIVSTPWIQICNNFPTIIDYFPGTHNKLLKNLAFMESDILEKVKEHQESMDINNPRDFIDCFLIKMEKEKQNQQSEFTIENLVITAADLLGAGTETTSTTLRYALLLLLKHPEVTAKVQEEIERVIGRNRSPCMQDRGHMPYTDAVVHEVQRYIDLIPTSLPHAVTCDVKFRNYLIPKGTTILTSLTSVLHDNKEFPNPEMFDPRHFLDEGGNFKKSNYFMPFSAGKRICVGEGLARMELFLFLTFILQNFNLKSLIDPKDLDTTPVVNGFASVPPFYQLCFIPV

CC1CN(S(=O)(=O)c2cccc(C(=O)OCC(=O)Nc3ccc4c(c3)OCO4)c2)CC(C)O1 (stereo unspecified)
IC50 (Protein skinhead-1): > 100 µM (inactive)

O=C(Nc1nccs1)c1ccc(-c2ccc(F)cc2)o1
IC50 (Protein skinhead-1): > 100 µM (inactive)

COc1ccc2[nH]c(C)c(-c3csc(N)n3)c2c1
AC50 [1]: 5.23 µM (active)

CCOC(=O)c1c(C)cc(C)n2c1nc1ccccc12
IC50 (Protein skinhead-1): > 100 µM (inactive)

Cc1ccc(-c2nc(-c3cccnc3)sc2CC(=O)Nc2ccc(C)c(Cl)c2)cc1
EC50 [2]: > 120 µM (not active) | EC50 [3]: 0.3 µM (active) | EC50 [4]: > 120 µM (not active)

O=[N+]([O-])c1cccnc1N1CCC(c2cc(-c3ccc(Cl)cc3Cl)[nH]n2)CC1
EC50 (Streptokinase A): 4.61 µM (active) | EC50 [5]: 2.31 µM (active) | AC50 [6]: 4.74 µM (active) | EC50 (Streptococcus): 13.4 µM (active)

O=C(COC(=O)c1c2c(nc3ccccc13)/C(=C\c1cccs1)CCC2)Nc1ccccc1
EC50 [7]: 1.9 µM (active) | AC50 [6]: 1.54 µM (active) | EC50 [8]: > 60 µM (inconclusive)

COc1ccc(Cc2nnc(NC(=O)c3ccc(OC)c(OC)c3)s2)cc1OC
EC50 [2]: > 120 µM (not active) | EC50 [3]: > 120 µM (not active) | EC50 [4]: > 120 µM (not active)

Cc1cc(C)c2oc(-c3ccc(C)c(NC(=S)NC(=O)/C=C/c4ccco4)c3)nc2c1
CC50 [9]: > 40 µM (active)

CCN(CC)CCOC(=O)c1ccc(NC(=O)CCCN2C(=O)/C(=C\c3cccs3)SC2=S)cc1
IC50 (Protein skinhead-1): > 100 µM (inactive)

CCCCCNCC(=O)Nc1cccc(C(=O)Nc2cccc(C(F)(F)F)c2)c1
AC50 [6]: 9.98 µM (active)

O=C1/C(=C\c2cc(Br)cc(Br)c2O)SC(=S)N1Cc1ccccc1
AC50 [6]: 0.894 µM (active)

Cc1ccccc1CS(=O)(=O)c1ccc(C(=O)N2CCOCC2)cc1[N+](=O)[O-]
EC50 [2]: > 120 µM (not active) | EC50 [3]: > 120 µM (not active) | EC50 [4]: > 120 µM (not active)

N#Cc1c2n(c3c(S)ncnc13)CCCCC2
AC50 (Cytochrome P450 2C19): 25.1 µM (inconclusive) | AC50 [1]: 1.65 µM (active)

CCOC(=O)c1c(-c2cccs2)csc1NC(=O)CN1CC(C)OC(C)C1 (stereo unspecified)
IC50 (Protein skinhead-1): > 100 µM (inactive)

Cc1ccc(-c2ccc(CCC(=O)O)n2NC(=O)c2cccs2)cc1
AC50 [1]: 8.15 µM (active)

COCCNc1nnnc2c1sc1nc(N3CCOCC3)c3c(c12)CC(C)(C)OC3
EC50 [2]: > 120 µM (not active) | EC50 [3]: > 120 µM (not active) | EC50 [4]: 15.8 µM (active)

O=C(C[C@@H]1C/C=C\C[C@H](NC(=O)OCC2c3ccccc3-c3ccccc32)C(=O)OC[C@H]2CCCN2C1=O)N[C@@H](CO)Cc1ccccc1
CC50 [9]: > 40 µM (active)

N#C/C(=C\c1ccco1)c1nc2ccccc2s1
IC50 (Protein skinhead-1): > 100 µM (inactive)

COc1ccc(C(=O)NC(=S)N2CCN(c3ccccc3OC)CC2)cc1OC
EC50 [2]: > 120 µM (not active) | EC50 [3]: > 120 µM (not active) | EC50 [4]: > 120 µM (not active)

O=c1c2ccccc2nnn1Cc1ccc(Br)cc1
IC50 (Protein skinhead-1): 87.8 µM (inactive)

Nc1nc2c3ccccc3nc(Cc3ccccc3)n2n1
EC50 [2]: 20.8 µM (active) | EC50 [3]: > 120 µM (not active) | EC50 [4]: 29.4 µM (active)

CCOc1ccc(C2c3[nH]c4ccccc4c3C[C@H]3C(=O)N(C4CCN(Cc5ccccc5)CC4)CC(=O)N23)cc1OC (stereo partly specified)
CC50 [9]: 38.9 µM (active)

CC(C)c1nc2scc(-c3ccc(Cl)cc3)c2c(=O)n1N
CC50 [9]: > 40 µM (active)

N#Cc1ccc(NCCc2ccccn2)c([N+](=O)[O-])c1
EC50 [2]: > 120 µM (not active) | EC50 [3]: > 120 µM (not active) | EC50 [4]: 23.7 µM (active)

Cc1cc(C)nc(NC(=O)/C=C/c2cccs2)c1
AC50 [6]: 6.68 µM (active)

COc1ccccc1C1CCN(Cc2ccc3ccccc3c2)CC1
EC50 [7]: 1.2 µM (active) | EC50 [8]: > 60 µM (not active) | CC50 [9]: > 40 µM (active)

COc1ccccc1-n1c(SCC(=O)Nc2cc(C)on2)nc2c(c1=O)SCC2
AC50 [10]: > 70 µM (inactive)

CC(C)Cc1nc2oc3c(N4CCN(CCO)CC4)ncnc3c2c2c1CCCC2
CC50 [9]: 33.8 µM (active)

O=[N+]([O-])c1cc(-c2cnc3ccccc3n2)ccc1Oc1ccc(Cl)cc1
AC50 [6]: 0.628 µM (active)

Cc1onc(-c2c(Cl)cccc2Cl)c1C(=O)NNc1ccccc1
AC50 [6]: 1.44 µM (active)

CCOC(=O)Nc1sc(C(=O)N(C)C)c(C)c1C(=O)OCC
EC50 [2]: 76.5 µM (active) | EC50 [3]: > 120 µM (not active) | EC50 [4]: 23.9 µM (active)

CC1(C)Cc2nc3[nH]nc(N)c3cc2CO1
AC50 [1]: 4.26 µM (active)

COn1c(-c2ccc(Cl)cc2)nc2ccc(Cl)cc21
IC50 (Protein skinhead-1): 10.8 µM (active) | CC50 [11]: 35.3 µM (active)

CC(=O)N1CCN(c2ccc(NCc3cccc(C)c3)cc2)CC1
IC50 [12]: 9.89 µM (active) | AC50 [1]: 0.787 µM (active)

CN1C(=O)c2ccccc2NC(=O)C1Cc1ccccc1 (stereo unspecified)
AC50 [1]: 3.26 µM (active)

CC(=O)Nc1ccc(N2C(=O)CSC2c2ccccc2)cc1 (stereo unspecified)
AC50 [1]: 0.025 µM (active)

CCCNC(=O)c1onc(CSc2ccc(Cl)cc2)c1C(=O)NCCC(C)C
AC50 [6]: 1.93 µM (active)

O=C(O)CCCN1C(=O)c2ccccc2Sc2ncccc21
IC50 (Protein skinhead-1): > 100 µM (inactive)

CC(=O)Nc1ccc(S(=O)(=O)N(C)CC(=O)NNC(=O)c2cccs2)cc1
IC50 (Protein skinhead-1): > 100 µM (inactive)

CC(C)c1ccc(Oc2cccc3c2S(=O)(=O)N(C2CCCC2)CC(COCc2ccccc2)O3)cc1 (stereo unspecified)
AC50 [13]: 15.5 µM (active) | AC50 [10]: > 70 µM (inactive)

COc1ccc(OC)c(NC(=O)c2cc(-c3cc(F)ccc3OCC3CCCO3)[nH]n2)c1 (stereo unspecified)
AC50 [13]: 10.5 µM (active)

O=c1/c(=C/c2ccc(O)cc2)sc2n1CCCN=2
IC50 [12]: 20.1 µM (active) | AC50 [1]: 1.16 µM (active)

CCNc1nc(NCC)nc(N/N=C/c2ccc([N+](=O)[O-])o2)n1
CC50 [9]: 39 µM (active)

Cc1ccc(N/N=C2/CCCNC2=O)cc1
AC50 [1]: 2.66 µM (active)

CC1=CC(C)[C@H](/C=N/n2c(=O)[nH]c3c([nH]c4ccc(Br)cc43)c2=O)C(C)C1 (stereo partly specified)
EC50 [7]: 2.06 µM (active) | AC50 [6]: 0.876 µM (active) | EC50 [8]: > 60 µM (not active)
